The nature of the test: Effective concentration in vitro against HIV-1-infected CEM cells relative to uninfected untreated controls.
Broadly, the EC50 is the concentration giving half of the maximal effect. Low values mean higher potency in that assay, high ones lower potency in that assay. For `CO[C@H]1N([C@H]2C[C@H](N=[N+]=[N-])[C@@H](CO)O2)C(=O)NC(=O)C1(C)Cl` (stereo partly specified), the EC50 amounted to 5790 nM.
`CO[C@H]1N(C2CC(N=[N+]=[N-])C(CO)O2)C(=O)NC(=O)[C@]1(C)I` (stereo partly specified) gave a concentration for a half-maximal effect (EC50) of 3.17 nM.
With `CC1(Cl)C(=O)NC(=O)N([C@H]2C[C@H](N=[N+]=[N-])[C@@H](CO)O2)C1N=[N+]=[N-]` (stereo partly specified) the figure was 1490 nM; with `CO[C@@H]1N(C2CC(N=[N+]=[N-])C(CO)O2)C(=O)NC(=O)[C@@]1(C)I` (stereo partly specified), 5.15 nM.
`CC(C)O[C@H]1N(C2CC(N=[N+]=[N-])C(CO)O2)C(=O)NC(=O)[C@]1(C)Br` (stereo partly specified) had an EC50 of 5720 nM.
Molecule `CO[C@@H]1N(C2CC(N=[N+]=[N-])C(CO)O2)C(=O)NC(=O)[C@@]1(C)Br` (stereo partly specified) came in with an EC50 of 280 nM.
Consider `CCO[C@H]1N(C2CC(N=[N+]=[N-])C(CO)O2)C(=O)NC(=O)[C@]1(C)Br` (stereo partly specified), for which the response was half-maximal at 6.75 nM (EC50).
As to `CO[C@H]1N(C2CC(N=[N+]=[N-])C(CO)O2)C(=O)NC(=O)[C@]1(C)Br` (stereo partly specified), a half-maximal effect (EC50) was put at 3.27 nM.
As for `CCO[C@@H]1N(C2CC(N=[N+]=[N-])C(CO)O2)C(=O)NC(=O)[C@@]1(C)Br` (stereo partly specified), a half-maximal effect (EC50) was put at 23.7 nM.
The molecule `CCCCCCCCO[C@H]1N(C2CC(N=[N+]=[N-])C(CO)O2)C(=O)NC(=O)[C@]1(C)Br` (stereo partly specified) displayed a concentration for a half-maximal effect (EC50) of 865 nM.
Turning to `CC1(Br)C(=O)NC(=O)N([C@H]2C[C@H](N=[N+]=[N-])[C@@H](CO)O2)C1N=[N+]=[N-]` (stereo partly specified), the midpoint of the response, the EC50, lay at 200000 nM. Compared with the last molecule, the EC50 is about 230-fold higher.

The values above are taken from BindingDB's records for doi:10.1021/jm00051a006 (University of Alberta, 1995).
